Like-named read-outs stand apart in the source and are kept apart here.
Key:
[1] = tested on: Saccharomyces cerevisiae; assay: MIC/MFC broth microdilution (CLSI); assay type: cell-based; conditions: Saccharomyces cerevisiae S288c
Method: (§1) Antifungal susceptibility was determined by broth microdilution according to the CLSI guidelines described in M27-Ed4 ([16]). […] MFC was determined by back-plating drug-treated cultures from MIC broths onto SDA plates. The MFC was defined as the lowest concentration from which no colonies could be cultured.

[2] = tested on: Candida albicans; assay: MIC/MFC broth microdilution (CLSI); assay type: cell-based; conditions: Candida albicans SC5314
Method: as §1

[3] = tested on: Cryptococcus deuterogattii; assay: checkerboard drug interaction (FICI, MICc);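 for all read-outs here: simplified diagonal checkerboard screen pairing antifungal drugs with FPPS inhibitors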; assay type: cell-based; conditions: C. deuterogattii; for INH FD (MIC-MICc fold decrease): fold decrease of inhibitor MIC
Method: (§2) Drug interactions between antifungals and FPPS inhibitors were investigated using a simplified checkerboard diagonal screening method ([45]). […] FICIs were determined according to the Loewe additivity model ([17]).

[4] = tested on: Cryptococcus neoformans; assay: checkerboard drug interaction (FICI, MICc);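 for all read-outs here: antifungal plus FPPS inhibitor pairs tested against Cryptococcus neoformans by simplified diagonal checkerboard screening, FICI computed under the Loewe additivity model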; assay type: cell-based; conditions: C. neoformans; for INH FD (MIC-MICc fold decrease): fold decrease of inhibitor MIC
Method: as §2

[5] = tested on: Saccharomyces cerevisiae; assay: checkerboard drug interaction (FICI, MICc);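 for all read-outs here: simplified diagonal checkerboard screen pairing antifungals with FPPS inhibitors, FICI calculated under the Loewe additivity model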; assay type: cell-based; design: INH MICc / INH MICc (ITR:INH) / INH MICc (KET:INH) / INH MICc (FLC:INH): unit not given beside the values; conditions: S. cerevisiae; for INH FD (MIC-MICc fold decrease): fold decrease of inhibitor MIC
[6] = tested on: Candida glabrata; assay: checkerboard drug interaction (FICI, MICc);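 for all read-outs here: simplified diagonal checkerboard screen pairing antifungals with FPPS inhibitors, FICI calculated under the Loewe additivity model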; assay type: cell-based; conditions: C. glabrata; for INH FD (MIC-MICc fold decrease): fold decrease of inhibitor MIC
Method: as §2

[7] = tested on: Candida albicans; assay: checkerboard drug interaction (FICI, MICc);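 for all read-outs here: antifungal plus FPPS inhibitor combinations on Candida albicans tested by a simplified diagonal checkerboard screen, with FICI calculated under the Loewe additivity model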; assay type: cell-based; conditions: C. albicans; for INH FD (MIC-MICc fold decrease): fold decrease of inhibitor MIC
Method: as §2

[8] = tested on: Aspergillus flavus; assay: checkerboard drug interaction (FICI, MICc);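 note: simplified diagonal checkerboard screen pairing azole antifungals with FPPS inhibitors, FICI calculated under the Loewe additivity model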; assay type: cell-based; design: INH MICc (KET:INH) / INH MICc (FLC:INH): unit not given beside the values; conditions: A. flavus
[9] = tested on: Aspergillus fumigatus; assay: checkerboard drug interaction (FICI, MICc);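 for all read-outs here: simplified diagonal checkerboard screen pairing antifungals with FPPS inhibitors against Aspergillus fumigatus, with FICI calculated under the Loewe additivity model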; assay type: cell-based; conditions: A. fumigatus; for INH FD (MIC-MICc fold decrease): fold decrease of inhibitor MIC
Method: as §2

[10] = tested on: Trichophyton rubrum; assay: checkerboard drug interaction (FICI, MICc);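 note: simplified diagonal checkerboard screen pairing azole antifungals with FPPS inhibitors, FICI calculated under the Loewe additivity model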; assay type: cell-based; conditions: T. rubrum
Method: as §2

[11] = tested on: HEK-293T cells; assay: MTT reduction cytotoxicity assay; assay type: cell-based; conditions: Homo sapiens, HEK-293T, 72 h, HEK-293T, MTT, 72 h; read-out: HEK IC50
[12] = tested on: eight fungal species; assay: MIC/MFC summary across the eight fungal species of Table 1; assay type: cell-based
Method: The antifungal activity of these compounds was evaluated according to CLSI guidelines ([16]).

[13] = tested on: eight fungal species; assay: checkerboard interaction with azoles, summary across the eight species; assay type: cell-based; conditions: geometric mean MIC in combination with azoles
Description: Synergy between lipophilic FPPS inhibitors and azole antifungals was investigated by determining the fractional inhibitory concentration index (FICI) (Fig. 2; Table S1 Fig. S1) ([17]). […]. Derivatives PLA9 and 11, and PDA9, 11, and 12 antagonized azoles in C. albicans, C. neoformans, and C. deuterogattii, yet were largely synergistic in C. glabrata and S. cerevisiae. […].

[14] = tested on: Cryptococcus deuterogattii; assay: MIC/MFC broth microdilution (CLSI); conditions: Cryptococcus deuterogattii;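 note: broth microdilution per CLSI M27-Ed4. MFC is the lowest concentration yielding no colonies when MIC broths are subcultured onto SDA plates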
Method: as §1

[15] = tested on: Cryptococcus neoformans; assay: MIC/MFC broth microdilution (CLSI); conditions: Cryptococcus neoformans;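 note: susceptibility testing followed the CLSI M27-Ed4 broth microdilution document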
Method: as §1

[16] = tested on: Candida glabrata; assay: MIC/MFC broth microdilution (CLSI); conditions: Nakaseomyces glabratus, CBS138;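 note: broth microdilution following CLSI M27-Ed4, MFC taken as the lowest drug level yielding no growth once MIC wells were subcultured on SDA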
Method: as §1

[17] = tested on: Aspergillus flavus; assay: MIC/MFC broth microdilution (CLSI); conditions: ATCC204304
Method: as §1

[18] = tested on: Aspergillus fumigatus; assay: MIC/MFC broth microdilution (CLSI); conditions: ATCC204305
Method: as §1

[19] = tested on: Trichophyton rubrum; assay: MIC/MFC broth microdilution (CLSI); conditions: Trichophyton rubrum
Method: as §1

[20] = FLC:INH combination, MIC of the inhibitor in combination with FLC
[21] = FLC:INH combination, fold decrease of FLC MIC
[22] = ITR:INH combination, MIC of the inhibitor in combination with ITR
[23] = ITR:INH combination, fold decrease of ITR MIC
[24] = KET:INH combination, MIC of the inhibitor in combination with KET
[25] = KET:INH combination, fold decrease of KET MIC
[26] = FLC:INH combination, MIC of FLC in combination with the inhibitor
[27] = ITR:INH combination, MIC of ITR in combination with the inhibitor
[28] = KET:INH combination, MIC of KET in combination with the inhibitor
[29] = Fractional Inhibitory Concentration Index, fluconazole + inhibitor
[30] = Fractional Inhibitory Concentration Index, itraconazole + inhibitor
[31] = Fractional Inhibitory Concentration Index, ketoconazole + inhibitor
[32] = MIC of the inhibitor in combination with fluconazole
[33] = MIC of the inhibitor in combination with itraconazole
[34] = MIC of the inhibitor in combination with ketoconazole
[35] = MIC-MICc fold decrease of fluconazole, negative = increase
[36] = MIC-MICc fold decrease of itraconazole, negative = increase
[37] = MIC-MICc fold decrease of ketoconazole, negative = increase
[38] = MIC-MICc fold decrease of the inhibitor, with fluconazole
[39] = MIC-MICc fold decrease of the inhibitor, with itraconazole
[40] = MIC-MICc fold decrease of the inhibitor, with ketoconazole

What does the source list for `CCCCCCCCCCCN1CCC[C@H]1C(=O)N[C@@H](CC(=O)O)C(=O)O` [PLA11]?
MFC [1]: > 128 µg/mL; MIC [1]: > 128 µg/mL; MFC [2]: > 128 µg/mL; MIC [2]: > 128 µg/mL; FICI ([3]; FLC:INH combination): ≥4; INH MICc [3, 20]: 256; FLC FD (MIC-MICc fold decrease) [3, 21]: -4; INH FD (MIC-MICc fold decrease) ([3]; FLC:INH combination): 1; FICI ([3]; ITR:INH combination): ≥4; INH MICc [3, 22]: 128; ITR FD (MIC-MICc fold decrease) [3, 23]: -4; INH FD (MIC-MICc fold decrease) ([3]; ITR:INH combination): 2; FICI ([3]; KET:INH combination): 1; INH MICc [3, 24]: 128; KET FD (MIC-MICc fold decrease) [3, 25]: 2; INH FD (MIC-MICc fold decrease) ([3]; KET:INH combination): 2; FICI ([4]; FLC:INH combination): ≥4; INH MICc [4, 20]: 256; FLC FD (MIC-MICc fold decrease) [4, 21]: < -4; INH FD (MIC-MICc fold decrease) ([4]; FLC:INH combination): 1; FICI ([4]; ITR:INH combination): ≥4; INH MICc [4, 22]: 256; ITR FD (MIC-MICc fold decrease) [4, 23]: < -4; INH FD (MIC-MICc fold decrease) ([4]; ITR:INH combination): 1; FICI ([4]; KET:INH combination): ≥4; INH MICc [4, 24]: 128; KET FD (MIC-MICc fold decrease) [4, 25]: -4; INH FD (MIC-MICc fold decrease) ([4]; KET:INH combination): 2; FICI ([5]; FLC:INH combination): 0.31; FLC MICc [5, 26]: 1; INH MICc [5, 20]: 16; FLC FD (MIC-MICc fold decrease) [5, 21]: 4; INH FD (MIC-MICc fold decrease) ([5]; FLC:INH combination): 16; FICI ([5]; ITR:INH combination): 0.38; ITR MICc [5, 27]: 0.063; INH MICc [5, 22]: 32; ITR FD (MIC-MICc fold decrease) [5, 23]: 4; INH FD (MIC-MICc fold decrease) ([5]; ITR:INH combination): 8; FICI ([5]; KET:INH combination): 0.28; KET MICc [5, 28]: 0.5; INH MICc [5, 24]: 8; KET FD (MIC-MICc fold decrease) [5, 25]: 4; INH FD (MIC-MICc fold decrease) ([5]; KET:INH combination): 32; FICI ([6]; FLC:INH combination): 0.28; INH MICc [6, 20]: 4; FLC FD (MIC-MICc fold decrease) [6, 21]: 4; INH FD (MIC-MICc fold decrease) ([6]; FLC:INH combination): 64; FICI ([6]; ITR:INH combination): 0.27; INH MICc [6, 22]: 2; ITR FD (MIC-MICc fold decrease) [6, 23]: 4; INH FD (MIC-MICc fold decrease) ([6]; ITR:INH combination): 128; FICI ([6]; KET:INH combination): 0.27; INH MICc [6, 24]: 2; KET FD (MIC-MICc fold decrease) [6, 25]: 4; INH FD (MIC-MICc fold decrease) ([6]; KET:INH combination): 128; FICI ([7]; FLC:INH combination): ≥4; INH MICc [7, 20]: 256; FLC FD (MIC-MICc fold decrease) [7, 21]: -4; INH FD (MIC-MICc fold decrease) ([7]; FLC:INH combination): 1; FICI ([7]; ITR:INH combination): ≥4; INH MICc [7, 22]: 256; ITR FD (MIC-MICc fold decrease) [7, 23]: -4; INH FD (MIC-MICc fold decrease) ([7]; ITR:INH combination): 1; FICI ([7]; KET:INH combination): ≥4; INH MICc [7, 24]: 128; KET FD (MIC-MICc fold decrease) [7, 25]: < -4; INH FD (MIC-MICc fold decrease) ([7]; KET:INH combination): 2; FICI (FLC:INH) [8, 29]: 0.75; FICI (ITR:INH) [8, 30]: 0.52; FICI (KET:INH) [8, 31]: 2; INH MICc (FLC:INH) [8, 32]: 64; INH MICc (ITR:INH) [8, 33]: 4; INH MICc (KET:INH) [8, 34]: 256; FLC FD (FLC:INH) [8, 35]: 2; ITR FD (ITR:INH) [8, 36]: 2; KET FD (KET:INH) [8, 37]: 1; INH FD (FLC:INH) [8, 38]: 4; INH FD (ITR:INH) [8, 39]: 64; INH FD (KET:INH) [8, 40]: 1; FICI ([9]; FLC:INH combination): 2; FLC MICc [9, 26]: 128; INH MICc [9, 20]: 256; FLC FD (MIC-MICc fold decrease) [9, 21]: 1; INH FD (MIC-MICc fold decrease) ([9]; FLC:INH combination): 1; FICI ([9]; ITR:INH combination): 0.51; ITR MICc [9, 27]: 0.063; INH MICc [9, 22]: 2; ITR FD (MIC-MICc fold decrease) [9, 23]: 2; INH FD (MIC-MICc fold decrease) ([9]; ITR:INH combination): 128; FICI ([9]; KET:INH combination): 1.5; KET MICc [9, 28]: 4; INH MICc [9, 24]: 128; KET FD (MIC-MICc fold decrease) [9, 25]: 1; INH FD (MIC-MICc fold decrease) ([9]; KET:INH combination): 2; FICI (FLC:INH) [10, 29]: 3; FICI (ITR:INH) [10, 30]: 2; FICI (KET:INH) [10, 31]: 1.5; INH MICc (FLC:INH) [10, 32]: 256; INH MICc (ITR:INH) [10, 33]: 256; INH MICc (KET:INH) [10, 34]: 128; FLC FD (FLC:INH) [10, 35]: -2; ITR FD (ITR:INH) [10, 36]: 1; KET FD (KET:INH) [10, 37]: 1; INH FD (FLC:INH) [10, 38]: 1; INH FD (ITR:INH) [10, 39]: 1; INH FD (KET:INH) [10, 40]: 2; IC50 [11]: > 256 µg/mL; MFC ([12]; across eight species, read-out: Geometric mean MFC): > 128 µg/mL; MIC ([12]; geometric mean across eight species, read-out: GM fungal MIC): > 128 µg/mL; MIC ([12]; read-out: Geometric mean MIC): > 128 µg/mL; GM fungal MICc [13]: 55.4; MFC [14]: > 128 µg/mL; MIC [14]: > 128 µg/mL; MFC [15]: > 128 µg/mL; MIC [15]: > 128 µg/mL; MFC [16]: > 128 µg/mL; MIC [16]: > 128 µg/mL; MFC [17]: > 128 µg/mL; MIC [17]: > 128 µg/mL; MFC [18]: > 128 µg/mL; MIC [18]: > 128 µg/mL; MFC [19]: > 128 µg/mL; MIC [19]: > 128 µg/mL

Reference: publication PMC12892976, “Alkylation-based optimization of antifungal FPPS inhibitors yields a potent, broad-spectrum lipophilic zoledronate derivative” (mBio, 2025)
